Test [1] relates to Mus musculus. In words: In vivo antidepressant activity assessed by prevention of tetrabenazine-induced ptosis in mice following i.p. administration. Format: functional.
In test [2] the test system is Mus musculus. As to the kind of experiment: Inhibition of pentylenetetrazole lethality in mice (po). In kind it is functional.
In test [3] the test system is Rattus norvegicus. In words: Potentiation of 5-HT induced behavioral syndrome in pargyline-pretreated rats (ip). In kind it is functional.
Test [4] has as its system Mus musculus. As to the kind of experiment: Prevention of amphetamine aggregation toxicity in mice (po). Format: functional.
Test [5] concerns Mus musculus. In words: Prevention of tetrabenazine-induced ptosis in mice (ip). In kind it is functional.
Test [6] is filed under the species Mus musculus. In words: Compound was tested for physostigmine lethality in mouse. Format: functional.
The subject of test [7] is Mus musculus. As to the kind of experiment: Compound was tested in vivo for antagonism of oxotremorine induced salivation in mouse. In kind it is functional.
Test [8] concerns Mus musculus. As to the kind of experiment: In vivo for the inhibition of potentiation of yohimbine -induced toxicity in mouse. In kind it is functional.
The nature of test [9]: Compound was tested in vitro for its ability to displace [3H]quinuclidine benzylate (QNB) from Muscarinic acetylcholine receptor on rat whole brain membranes. In kind it is cell membranes.
Test [10] concerns Rattus norvegicus. As to the kind of experiment: Compound was screened in vivo for antidepressant activity by 5 HTP potentiation method in rat. Format: functional.
Test [11] is filed under the species Rattus norvegicus. In words: In vitro inhibition against neuronal uptake of norepinephrine in whole brain. Format: functional.
In test [12] the test system is Mus musculus. As to the kind of experiment: Compound was tested in vivo for antagonism of oxotremorine induced -tremors in mouse. Format: functional.
Test [13] is filed under the species Rattus norvegicus. In words: In vitro inhibition against neuronal uptake of serotonin in whole brain. In kind it is functional.
The subject of test [14] is Mus musculus. As to the kind of experiment: Compound was tested in vivo for potential antidepressant activity which was assessed by its prevention of tetrabenazine-induced ptosis in mice. Format: functional.
The species entered for test [15] is Rattus norvegicus. As to the kind of experiment: In vitro inhibition against neuronal uptake of dopamine in striatum. Format: functional.
The species entered for test [16] is Rattus norvegicus. As to the kind of experiment: In vitro inhibition against neuronal uptake of norepinephrine in rat whole brain. In kind it is functional.
Test [17] relates to Rattus norvegicus. As to the kind of experiment: Compound was screened in vivo for antidepressant activity by tryptamine seizure potentiation method in rat. In kind it is functional.
The species named for test [18] is Rattus norvegicus. In words: In vitro inhibition against neuronal uptake of dopamine in rat striatum. In kind it is functional.
In test [19] the test system is Rattus norvegicus. As to the kind of experiment: Compound was tested for beta -adrenergic sensitivity when administered to rats at 10 mg/kg, perorally, twice daily for 10 days. Conditions: 240 h, route oral. In kind it is functional.
Test [20] concerns Rattus norvegicus. In words: In vivo effective dose for intraperitoneal administration required for the muricidal activity was determined in rat. Conditions: ip. In kind it is functional.
Test [21] concerns Rattus norvegicus. In words: Compound was screened in vivo for antidepressant activity by 5 HTP potentiation method in rat. In kind it is functional.
In test [22] the test system is Mus musculus. In words: In vivo inhibition of potentiation of yohimbine -induced toxicity in mouse. In kind it is functional.
Test [23] is filed under the species Rattus norvegicus. As to the kind of experiment: In vitro inhibition against neuronal uptake of norepinephrine in rat hypothalamus. Format: functional.
For test [24], the system named is Rattus norvegicus. In words: In vivo for the inhibition of muricidal activity. The effective dose (intraperitoneally) required for the activity was determined in rat. Format: functional. Conditions: ip.
Test [25] relates to Rattus norvegicus. As to the kind of experiment: Compound was tested in vitro for beta -adrenergic sensitivity and administered to rats at 10 mg/kg, perorally, twice daily for 10 days. In kind it is functional. Conditions: 240 h, route oral.
Where [26] appears, read: Mus musculus, ip, read-out: ED50.

A word on the ED50: it is the dose at which the effect has come halfway, by size or by number of responders. The IC50 is the point on the concentration scale where inhibition reaches its midpoint. A word on the inhibition in vivo: it is the relative decrease from the control value, in per cent.

Some results are limits rather than exact numbers.

Turning to `c1ccc(C2=NC(c3ccccc3)Cc3ccccc3N2)cc1` (stereo not given), the ED50 in test [1] (setting [26]) was > 20 mg/kg.

Turning to `CCCN1C(C)=Nc2ccccc2CC1c1ccccc1` (stereo not given), the ED50 in [1] (setting [26]) is > 5 mg/kg.

In the case of `CCC1=Nc2ccccc2CC(c2ccccc2)N1C` (stereo not given), the ED50 in [1] (setting [26]) amounted to 0.6 mg/kg.

For the compound `CN1C(c2ccccc2)=Nc2ccccc2CC1c1ccccc1` (stereo not given), the ED50 in [1] (setting [26]) was > 20 mg/kg.

Regarding `CC1=NC(c2ccccc2)Cc2ccccc2N1c1ccccc1` (stereo not given), in test [1] (setting [26]), the ED50 was > 20 mg/kg.

For the compound `CC1=NC(c2ccccc2)Cc2ccccc2N1C` (stereo not given), the ED50 in test [1] (setting [26]) is > 20 mg/kg.

Consider `CC1=Nc2ccccc2CC(c2ccccc2)N1CC1CCCCC1` (stereo not given), for which, in test [1] (setting [26]), the ED50 was ~20 mg/kg.

As to `CC1=Nc2ccccc2CC(c2ccccc2)N1Cc1ccccc1` (stereo not given), the ED50 in test [1] (setting [26]) was > 20 mg/kg.

For `c1ccc(C2Cc3ccccc3NC(C3CC3)=N2)cc1` (stereo not given), the median effective dose (ED50) in [1] (setting [26]) was > 20 mg/kg.

Turning to `CNC(Cc1ccccc1[N+](=O)[O-])c1ccccc1` (stereo not given), the 50% effective dose (ED50) in test [2] is > 40 mg/kg; in test [3] it was > 10 mg/kg; in [4], > 20 mg/kg.

With `CC(=O)C(Cc1ccccc1NCN1C(=O)CCC1=O)c1ccccc1` (stereo not given), the 50% effective dose (ED50) in [2] was > 40 mg/kg; in test [3] it was > 10 mg/kg; in [5], > 20 mg/kg; in test [4] it was > 20 mg/kg.

`CN1C=Nc2ccccc2CC1c1ccccc1` (stereo not given): the ED50 in test [1] (setting [26]) stood at 9.7 mg/kg.

For the compound `CCN1C(C)=Nc2ccccc2CC1c1ccccc1` (stereo not given), the ED50 in test [1] (setting [26]) was ~20 mg/kg.

For `C1=NC(c2ccccc2)Cc2ccccc2N1` (stereo not given), in test [1] (setting [26]), the 50% effective dose (ED50) was ~20 mg/kg.

Regarding `CCCC1=Nc2ccccc2CC(c2ccccc2)N1C` (stereo not given), the ED50 in test [1] (setting [26]) is > 20 mg/kg.

In the case of `CCC1=NC(c2ccccc2)Cc2ccccc2N1` (stereo not given), the ED50 in test [1] (setting [26]) was > 5 mg/kg.

Regarding `CC1=NC(c2ccccc2)Cc2ccccc2N1` (stereo not given), the ED50 in [1] (setting [26]) is > 20 mg/kg.

Turning to `CN1C(C2CC2)=Nc2ccccc2CC1c1ccccc1` (stereo not given), the ED50 in test [1] (setting [26]) was > 20 mg/kg.

In the case of `CN(C)CCC=C1c2ccccc2CCc2ccccc21` [AMITRIPTYLINE], the ED50 in [6] was 9.6 mg/kg; in test [7] it was > 5 mg/kg; in test [8], 8 mg/kg; in test [10], 7.1 mg/kg; in [12] it was 1.3 mg/kg; in test [14], 1.9 mg/kg. In [1] (setting [26]), the 50% effective dose (ED50) is 1.5 mg/kg. For the same compound, the IC50 in test [9] turned out to be 3 µM; in test [11] it was 4.7 µM; in test [13], 2 µM; in test [15], 14 µM.

On to `CC1=Nc2ccccc2CC(c2ccccc2)N1C.Cl` (stereo not given) [DAZEPINIL HYDROCHLORIDE], for which the IC50 was determined as 1.7 µM in test [16], 5.3 µM in test [18], 8.4 µM in test [13] and 0.9 µM in [23]. The 50% effective dose (ED50) is > 25 mg/kg in [7]; > 25 mg/kg in test [17]; > 20 mg/kg in test [20]; > 10 mg/kg in test [21]; > 25 mg/kg in test [12]; 5.9 mg/kg in test [22]. Further, the ED50 came out at 2.1 mg/kg in test [1] and 1.5 mg/kg in test [1] (setting [26]). In [19], the inhibition in vivo at 10 mg/kg is -44%.

Consider `CNCCCN1c2ccccc2CCc2ccccc21` [DESIPRAMINE], for which the ED50 was > 25 mg/kg in test [17] and 8.2 mg/kg in test [24]. In addition, the inhibition in vivo at 10 mg/kg in test [25] was -50%.

Source of the values: ChEMBL document CHEMBL1122144, “(+/-)-4-Aryl-4,5-dihydro-3H-1,3-benzodiazepines. 1. Synthesis and evaluation of (+/-)-4,5-dihydro-2,3-dimethyl-4-phenyl-3H-1,3-benzodiazepine and analogues as potential antidepressant agents” (J Med Chem, 1982).
